# Source: patent US9221783B2, “Phenylalkyl sulfamate compound and muscle relaxant composition comprising the same” (BIO-PHARM SOLUTIONS CO., LTD., priority 2012, dated 2015)
# Assays:
# Assay type in all cases: in vivo
# [1] = test system: male mice (ICR); test: Muscle relaxation activity by residence time on a rotarod rotating at a fixed speed; conditions: intraperitoneal; for ED50: Mus musculus, ip, 15 rpm, max 10 min, ED50 vs vehicle only (100%), determined at 0.5 h (time of maximum effect)
# Method: (§1) For testing, male mice (ICR) were purchased from ORIENT BIO INC. (Korea), divided into several groups with 6 mice in each group, and were adapted for 4-5 days. The mice having the weight ranging from 19 g to 26 g were employed for the test. The pharmacological effect of the test compounds on muscle relaxation was evaluated by Rotarod test, grip strength test, and muscular force (wire hang) test. All mice were adapted to the test environment at one hour before starting the tests. The pharmacological effects of all the test compounds were evaluated by administration through peritoneal cavity of the mice (10 ul/g, bw).
# All the mice to be tested were preliminarily trained for 5 minutes on a rod rotating at the rate of 15 revolutions per a minute. The mice that could not remain on the rod without falling off therefrom for a minimum of 2 minutes were excluded from this testing. After the training, all the mice were allowed to rest for 45-60 minutes. Before the administration of the test compounds, the mice were subjected to a further training for one minute on the rod rotating under the same condition, where the mice falling off from the rod were excluded from this experimentation. […] In case a mouse stays on the rod until the test is finished, the time was recorded as 10 minutes. As test time for evaluation, a maximum of 10 minutes was applied. This experimentation was conducted according to the method described in the reference, ‘Yasuda et al. (2005) Antipyretic, analgesic and muscle relaxant activities of Pueraria isoflavonoids and their metabolites from Pueraria lobata Ohwi—a traditional Chinese drug. Biol. Pharm. Bull. 28: 1224-1228.
# (§2) The obtained results are shown as mean±sem. The difference between the groups was statistically analyzed by ANOVA, and then, further examined by Dunnett's test or Bonferroni test. If p is less than 0.05, it was determined that the difference between the groups had statistical significance.
# (§3) The results of muscle relaxation activity of the phenylalkyl sulfamate compounds measured in above Experimental Examples 1 to 43 are shown in following Table 2.
# [2] = test system: male mice (ICR); test: Muscle relaxation activity by wire hang (wire suspension) test; conditions: intraperitoneal; for ED50: Mus musculus, ip, ED50 vs vehicle only (100%); for Wire suspension, percentage compared to the vehicle only (100%): dose 100 (unit not given)
# Method: as §1
# This experimentation was conducted using a metal wire of 30 cm in length, which was suspended between two pillars at a height of about 40 cm from the bottom covered with a soft pad. […] Each mouse was made to grip the wire using two forelimbs, and the elapse time before the mouse fell off from the wire to the pad on the bottom was recorded in seconds. Each mouse was given 5 opportunities for this test at an interval of 2 minutes period. The highest 3 records among the test opportunities were selected and the mean value was used as the test result. This experimentation was conducted according to the method described in the reference, ‘Jacqueline N. Crawley (1999) Behavioral phenotyping of transgenic and knockout mice: experimental design and evaluation of general health, sensory functions, motor abilities, and specific behavioral tests. Brain Res. 835: 18-26’.
# as §2, §3
# [3] = test system: male mice (ICR); test: Muscle relaxation activity by grip strength test (forelimbs); conditions: intraperitoneal; for ED50: Mus musculus, ip; for Grip strength, percentage compared to the vehicle only (100%): dose 200 (unit not given)
# Method: as §1
# The test was conducted before and after administration of the compounds to evaluate the effects thereof. […] The mouse was made to grip the rod with its forelimbs, and its tail was pulled, where the force at which the mouse detached from the rod was recorded. The instrument indicated the force in grams. All of the mice were given 3 opportunities for test, and the 3 highest values among the test opportunities were selected and the mean value was used as the test result. […] Psychopharmacol. 110: 92-96’.
# as §2
# [4] = determined at 0.5 h (time of maximum effect)
# [5] = ED50 = 50% of muscle relaxation activity compared to vehicle only (100%), determined at 0.5 h (time of maximum effect)
smiles,measurement,setting,value
"CC1(C)O[C@H](c2ccccc2Cl)[C@@H](COS(N)(=O)=O)O1 [Example 1, ((4R,5R)-5-(2-chlorophenyl)-2,2-dimethyl-1,3-dioxolan-4-yl)methyl sulfamate]",ED50,[1],108 mg/kg
same,ED50,[2]; [4],96.7 mg/kg
same,ED50,[3]; [5],212 mg/kg
"CC1(C)O[C@@H](COS(N)(=O)=O)[C@H](c2ccccc2Cl)O1 [Example 2, ((4S,5S)-5-(2-chlorophenyl)-2,2-dimethyl-1,3-dioxolan-4-yl)methyl sulfamate]",ED50,[1],73.6 mg/kg
same,ED50,[2]; [4],81.4 mg/kg
same,ED50,[3]; [5],211 mg/kg
"CC1(C)OC(COS(N)(=O)=O)C(c2ccccc2Cl)O1 (stereo not shown) [Example 3, (5-(2-chlorophenyl)-2,2-dimethyl-1,3-dioxolan-4-yl)methyl sulfamate]",ED50,[1],99.2 mg/kg
same,ED50,[2]; determined at 1 h (time of maximum effect),116 mg/kg
same,ED50,"[3]; ED50 vs vehicle only (100%), determined at 0.25 h (time of maximum effect)",205 mg/kg
"CC1(C)OC(COS(N)(=O)=O)C(c2ccccc2Cl)O1 (stereo not shown) [Example 4, (5-(2-chlorophenyl)-2,2-dimethyl-1,3-dioxolan-4-yl)methyl sulfamate]","Fixed rotarod, percentage of residence time compared to the vehicle only (100%)",[1]; dose 100 (unit not given),100 (76.6%)
same,"Wire suspension, percentage compared to the vehicle only (100%)",[2],100 (41.3%)
same,"Grip strength, percentage compared to the vehicle only (100%)",[3],200 (56.5%)
"CC1O[C@@H](COS(N)(=O)=O)[C@H](c2ccccc2Cl)O1 (stereo partly drawn) [Example 6, ((4S,5S)-5-(2-chlorophenyl)-2-methyl-1,3-dioxolan-4-yl)methyl sulfamate]","Fixed rotarod, percentage of residence time compared to the vehicle only (100%)",[1]; dose 100 (unit not given),100 (50.4%)
same,"Wire suspension, percentage compared to the vehicle only (100%)",[2],100 (70.0%)
same,"Grip strength, percentage compared to the vehicle only (100%)",[3],200 (44.8%)
"CC1(C)O[C@H](c2ccccc2F)[C@@H](COS(N)(=O)=O)O1 [Example 15, ((4R,5R)-5-(2-fluorophenyl)-2,2-dimethyl-1,3-dioxolan-4-yl)methyl sulfamate]","Fixed rotarod, percentage of residence time compared to the vehicle only (100%)",[1]; dose 140 (unit not given),140(22.7%)
"CC1(C)O[C@@H](COS(N)(=O)=O)[C@H](c2ccccc2F)O1 [Example 16, ((4S,5S)-5-(2-fluorophenyl)-2,2-dimethyl-1,3-dioxolan-4-yl)methyl sulfamate]",ED50,[2]; [4],99.1 mg/kg
same,ED50,[3]; [5],161 mg/kg
"CC1(C)O[C@@H](COS(N)(=O)=O)[C@H](c2ccccc2I)O1 [Example 28, ((4S,5S)-5-(2-iodophenyl)-2,2-dimethyl-1,3-dioxolan-4-yl)methyl sulfamate]",ED50,[1],102 mg/kg
same,"Wire suspension, percentage compared to the vehicle only (100%)",[2],100(66.8%)
same,ED50,[3]; [5],261 mg/kg
"CCC1(CC)O[C@H](COS(N)(=O)=O)[C@@H](Cc2ccccc2Cl)O1 [Example 148, ((4R,5R)-5-(2-chlorobenzyl)-2,2-diethyl-1,3-dioxolan-4-yl)methyl sulfamate]","Grip strength, percentage compared to the vehicle only (100%)",[3],200 (70.2%)
"NS(=O)(=O)OC[C@H]1OC2(CCCC2)O[C@@H]1Cc1ccccc1Cl [Example 150, ((2R,3R)-3-(2-chlorobenzyl)-1,4-dioxaspiro[4,4]nonan-2-yl)methyl sulfamate]","Grip strength, percentage compared to the vehicle only (100%)",[3],200 (89.8%)
"NS(=O)(=O)OC[C@H]1OC2(CCCCC2)O[C@@H]1Cc1ccccc1Cl [Example 152, ((2R,3R)-3-(2-chlorobenzyl)-1,4-dioxaspiro[4,5]decan-2-yl)methyl sulfamate]","Grip strength, percentage compared to the vehicle only (100%)",[3],200 (77.2%)
"CC1(C)O[C@@H](CCOS(N)(=O)=O)[C@H](c2ccccc2Cl)O1 [Example 154, ((4S,5S)-5-(2-chlorophenyl)-2,2-dimethyl-1,3-dioxolan-4-yl)ethyl sulfamate]","Grip strength, percentage compared to the vehicle only (100%)",[3],200 (70.4%)
"CCC1(CC)O[C@@H](CCOS(N)(=O)=O)[C@H](c2ccccc2Cl)O1 [Example 156, 2-((4S,5S)-5-(2-chlorophenyl)-2,2-diethyl-1,3-dioxolan-4-yl)ethyl sulfamate]","Grip strength, percentage compared to the vehicle only (100%)",[3],200 (73.2%)
"NS(=O)(=O)OCC[C@@H]1OC2(CCCC2)O[C@H]1c1ccccc1Cl [Example 158, 2-((2S,3S)-3-(2-chlorophenyl)-1,4-dioxaspiro[4,4]nonan-2-yl)ethyl sulfamate]","Grip strength, percentage compared to the vehicle only (100%)",[3],200 (74.2%)
"NS(=O)(=O)OCC[C@@H]1OC2(CCCCC2)O[C@H]1c1ccccc1Cl [Example 160, 2-((2S,3S)-3-(2-chlorophenyl)-1,4-dioxaspiro[4,5]decan-2-yl)ethyl sulfamate]","Grip strength, percentage compared to the vehicle only (100%)",[3],200 (86.8%)
